From the supplement of paper PMC10627819

Experiments:
[1] = tested on: S. aureus Newman; experiment: fitness (endpoint OD595 vs no drug) (fraction); higher = more growth
Outline: (§1)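 Volumes were 30 µl per well, or 55 µl for S. pneumoniae, in 384-well plates inoculated at OD595 0.01. Media were TSB, LB Lennox or CY at 37 °C, and OD595 was read every 30 min for 14 h with first-reading background subtraction. Fitness is the ratio of optical density at stationary-phase entry to the robust mean of no-drug controls. That ratio is capped at 1.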

[2] = tested on: S. aureus DSM 20231; experiment: as above
Outline: as §1

[3] = tested on: S. pneumoniae D39V; experiment: as above
Outline: as §1

[4] = tested on: B. subtilis 168; experiment: as above
Outline: as §1

[5] = tested on: S. aureus Newman; experiment: Bliss interaction score (quartile over a dose matrix) (fitness difference); higher = more antagonism (negative = synergy)
Outline: (§2)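 Fitness here means normalised growth, inferred for single drugs from the combination data. Growth was OD595 at entry into stationary phase, divided by the plate's robust no-drug mean and capped at 1. The Bliss score is observed minus expected fitness, with the expectation being the product, and its quartiles span technical, biological and donor/recipient replicates.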

[6] = tested on: S. aureus DSM 20231; experiment: as above
Outline: as §2

[7] = tested on: S. pneumoniae D39V; experiment: as above
Outline: as §2

[8] = tested on: B. subtilis 168; experiment: as above
Outline: as §2

[9] = first compound 0.0156 µg/mL, partner 0.0625 µg/mL
[10] = first compound 0.0156 µg/mL, partner 0.125 µg/mL
[11] = first compound 0.0156 µg/mL, partner 0.25 µg/mL
[12] = first compound 0.0156 µg/mL, partner 0.5 µg/mL, one replicate
[13] = first compound 0.0156 µg/mL, partner 1 µg/mL, one replicate
[14] = first compound 0.0312 µg/mL, partner 0.0625 µg/mL
[15] = first compound 0.0312 µg/mL, partner 0.125 µg/mL
[16] = first compound 0.0312 µg/mL, partner 0.25 µg/mL
[17] = first compound 0.0312 µg/mL, partner 0.5 µg/mL, one replicate
[18] = first compound 0.0312 µg/mL, partner 1 µg/mL, one replicate
[19] = first compound 0.0625 µg/mL, partner 0.0625 µg/mL
[20] = first compound 0.0625 µg/mL, partner 0.125 µg/mL
[21] = first compound 0.0625 µg/mL, partner 0.25 µg/mL
[22] = first compound 0.0625 µg/mL, partner 0.5 µg/mL, one replicate
[23] = first compound 0.0625 µg/mL, partner 1 µg/mL, one replicate
[24] = first compound 1.25 µg/mL, partner 1 µg/mL
[25] = first compound 1.25 µg/mL, partner 2 µg/mL
[26] = first compound 1.25 µg/mL, partner 4 µg/mL
[27] = first compound 2.5 µg/mL, partner 1 µg/mL
[28] = first compound 2.5 µg/mL, partner 2 µg/mL
[29] = first compound 5 µg/mL, partner 1 µg/mL
[30] = first compound 5 µg/mL, partner 2 µg/mL
[31] = first compound 5 µg/mL, partner 4 µg/mL
[32] = first compound 2.5 µg/mL, partner 4 µg/mL
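Wherever Bliss interaction score (quartile over a dose matrix) is given: first quartile when negative (synergy) and third quartile when positive (antagonism).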

Cc1onc(-c2ccccc2)c1C(=O)N[C@@H]1C(=O)N2[C@@H]1SC(C)(C)[C@@H]2C(=O)O [Oxacillin] + CC1=C\[C@@H](O)CC(=O)Cc2nc(co2)C(=O)N2CCC=C2C(=O)O[C@H](C(C)C)[C@H](C)/C=C/C(=O)NC\C=C\1 [Virginiamycin M1]
fitness [1, 9]: 0.755 | fitness [1, 10]: 0.761 | fitness [1, 11]: 0.763 | fitness [1, 12]: 0.815 | fitness [1, 13]: 0.882 | fitness ([1]; first compound 0.0156 µg/mL, partner 2 µg/mL, one replicate): 0.843 | fitness [1, 14]: 0.71 | fitness [1, 15]: 0.709 | fitness [1, 16]: 0.694 | fitness [1, 17]: 0.752 | fitness [1, 18]: 0.78 | fitness ([1]; first compound 0.0312 µg/mL, partner 2 µg/mL, one replicate): 0.723 | fitness [1, 19]: 0.622 | fitness [1, 20]: 0.623 | fitness [1, 21]: 0.643 | fitness [1, 22]: 0.597 | fitness [1, 23]: 0.671 | fitness ([1]; first compound 0.0625 µg/mL, partner 2 µg/mL, one replicate): 0.676 | fitness [2, 9]: 0.803 | fitness [2, 10]: 0.808 | fitness [2, 11]: 0.775 | fitness [2, 12]: 0.835 | fitness [2, 13]: 0.903 | fitness [2, 14]: 0.61 | fitness [2, 15]: 0.686 | fitness [2, 16]: 0.628 | fitness [2, 17]: 0.719 | fitness [2, 18]: 0.746 | fitness [2, 19]: 0.492 | fitness [2, 20]: 0.514 | fitness [2, 21]: 0.545 | fitness [2, 22]: 0.517 | fitness [2, 23]: 0.64 | fitness ([3]; first compound 0.01 µg/mL, partner 0.15 µg/mL, one replicate): ≥ 1 | fitness ([3]; first compound 0.01 µg/mL, partner 0.3 µg/mL, one replicate): ≥ 1 | fitness ([3]; first compound 0.01 µg/mL, partner 0.5 µg/mL): 0.986 | fitness ([3]; first compound 0.01 µg/mL, partner 1 µg/mL): 0.98 | fitness ([3]; first compound 0.01 µg/mL, partner 2 µg/mL): 0.961 | fitness ([3]; first compound 0.02 µg/mL, partner 0.15 µg/mL, one replicate): ≥ 1 | fitness ([3]; first compound 0.02 µg/mL, partner 0.3 µg/mL, one replicate): ≥ 1 | fitness ([3]; first compound 0.02 µg/mL, partner 0.5 µg/mL): 0.964 | fitness ([3]; first compound 0.02 µg/mL, partner 1 µg/mL): 0.965 | fitness ([3]; first compound 0.02 µg/mL, partner 2 µg/mL): 0.913 | fitness ([3]; first compound 0.04 µg/mL, partner 0.15 µg/mL, one replicate): 0.994 | fitness ([3]; first compound 0.04 µg/mL, partner 0.3 µg/mL, one replicate): 0.989 | fitness ([3]; first compound 0.04 µg/mL, partner 0.5 µg/mL): 0.539 | fitness ([3]; first compound 0.04 µg/mL, partner 1 µg/mL): 0.568 | fitness ([4]; first compound 0.002 µg/mL, partner 0.0625 µg/mL): 0.993 | fitness ([4]; first compound 0.002 µg/mL, partner 0.125 µg/mL): 0.954 | fitness ([4]; first compound 0.002 µg/mL, partner 0.25 µg/mL): 0.977 | fitness ([4]; first compound 0.004 µg/mL, partner 0.0625 µg/mL): 0.98 | fitness ([4]; first compound 0.004 µg/mL, partner 0.125 µg/mL): 0.941 | fitness ([4]; first compound 0.004 µg/mL, partner 0.25 µg/mL): 0.973 | fitness ([4]; first compound 0.008 µg/mL, partner 0.0625 µg/mL): 0.962 | fitness ([4]; first compound 0.008 µg/mL, partner 0.125 µg/mL): 0.905 | fitness ([4]; first compound 0.008 µg/mL, partner 0.25 µg/mL): 0.962 | fitness ([4]; first compound 0.075 µg/mL, partner 0.0625 µg/mL, one replicate): 0.461 | fitness ([4]; first compound 0.075 µg/mL, partner 0.125 µg/mL, one replicate): 0.639 | fitness ([4]; first compound 0.075 µg/mL, partner 0.25 µg/mL, one replicate): 0.53 | fitness ([4]; first compound 0.15 µg/mL, partner 0.0625 µg/mL, one replicate): 0.0434 | fitness ([4]; first compound 0.15 µg/mL, partner 0.125 µg/mL, one replicate): 0.0511 | fitness ([4]; first compound 0.15 µg/mL, partner 0.25 µg/mL, one replicate): 0.0511 | fitness ([4]; first compound 0.3 µg/mL, partner 0.0625 µg/mL, one replicate): 0.04 | fitness ([4]; first compound 0.3 µg/mL, partner 0.125 µg/mL, one replicate): 0.0604 | fitness ([4]; first compound 0.3 µg/mL, partner 0.25 µg/mL, one replicate): 0.0635 | Bliss interaction score [5]: 0.0583 | Bliss interaction score [6]: -0.0341 | Bliss interaction score [7]: 0.114 | Bliss interaction score [8]: 0.0548

C[n+]1ccc(-c2cc[n+](C)cc2)cc1 [Paraquat] + Cc1cc(NS(=O)(=O)c2ccc(N)cc2)no1 [Sulfamethoxazol]
fitness [1, 24]: 0.977 | fitness [1, 25]: 0.946 | fitness [1, 26]: 0.915 | fitness ([1]; first compound 1.25 µg/mL, partner 8 µg/mL, one replicate): 0.949 | fitness [1, 27]: 0.985 | fitness [1, 28]: 0.964 | fitness ([1]; first compound 2.5 µg/mL, partner 8 µg/mL, one replicate): 0.818 | fitness [1, 29]: 0.928 | fitness [1, 30]: 0.969 | fitness [1, 31]: 0.881 | fitness ([1]; first compound 5 µg/mL, partner 8 µg/mL, one replicate): 0.874 | fitness [2, 24]: 0.952 | fitness [2, 25]: 0.959 | fitness [2, 26]: 0.946 | fitness [2, 27]: 0.882 | fitness [2, 28]: 0.866 | fitness [2, 32]: 0.842 | fitness [2, 29]: 0.812 | fitness [2, 30]: 0.868 | fitness [2, 31]: 0.885 | fitness ([3]; first compound 1.5 µg/mL, partner 1 µg/mL): 0.979 | fitness ([3]; first compound 1.5 µg/mL, partner 2 µg/mL): 0.971 | fitness ([3]; first compound 1.5 µg/mL, partner 4 µg/mL): 0.926 | fitness ([3]; first compound 3 µg/mL, partner 1 µg/mL): 0.966 | fitness ([3]; first compound 3 µg/mL, partner 2 µg/mL): 0.992 | fitness ([3]; first compound 3 µg/mL, partner 4 µg/mL): 0.931 | fitness ([3]; first compound 6 µg/mL, partner 1 µg/mL): 0.995 | fitness ([3]; first compound 6 µg/mL, partner 2 µg/mL): 0.986 | fitness ([3]; first compound 6 µg/mL, partner 4 µg/mL): 0.94 | fitness ([4]; first compound 1.25 µg/mL, partner 0.5 µg/mL, one replicate): 0.922 | fitness [4, 24]: 0.928 | fitness [4, 25]: 0.901 | fitness [4, 26]: 0.976 | fitness ([4]; first compound 2.5 µg/mL, partner 0.5 µg/mL, one replicate): ≥ 1 | fitness [4, 27]: 0.901 | fitness [4, 28]: 0.883 | fitness [4, 32]: 0.911 | fitness ([4]; first compound 5 µg/mL, partner 0.5 µg/mL, one replicate): 0.82 | fitness [4, 29]: 0.821 | fitness [4, 30]: 0.823 | fitness [4, 31]: 0.853 | Bliss interaction score [5]: 0.0523 | Bliss interaction score [6]: -0.0548 | Bliss interaction score [7]: -0.0314 | Bliss interaction score [8]: 0.0341
